# Measurements taken from US7858738B2, “Synthetic human peptides and pharmaceutical compositions comprising them for the treatment of systemic lupus erythematosus” (Yeda Research and Development Co., Ltd., priority 2001, dated 2010).
# Tests used:
# [1] = test system: MMP-3; assay: MMP-3 levels in sera of 16/6Id immunized BALB/c mice (Western blot); assay type: in vivo; conditions: prevention and treatment protocols, 100 μg/mouse; FIG. 21A
# Protocol: (§1) Induction and treatment of experimental SLE. In order to induce experimental SLE, BALB/c mice were immunized with 1-2 μg of the human mAb 16/6Id and boosted 3 weeks later. For the prevention of experimental SLE, mice were given hCDR1 or hCDR3 (mCDR1 or revmCDR1 as control peptide in Example 12) intravenously (i.v.) or s.c. concomitant with the immunization, and were injected weekly thereafter for 5 weeks. Treatment of an established disease started three and a half months following disease induction with the 16/6Id, when clinical manifestations were already observed. In Example 12, mice received 10 weekly injections (i.v. or s.c.) of mCDR1 or revmCDR1 at a dose of 100 μg/mouse. Prevention and treatment of SLE-like disease in (NZB×NZW)F1 mice with the hCDR1 or mCDR1 peptide. […] Results are expressed as the mean thymidine incorporation in counts per minute (CPM) of triplicate culture±SD, or as stimulation index (S.I.; the ratio of mean CPM at the optimal concentration of the human 16/6Id to the mean CPM in the presence of medium alone). […] TGF-β was determined by an ELISA. […] The substrate solution used was TMB color Reagent (Helix Diagnostics, West Sacramento, Calif.), and enzyme activity was evaluated by using 570- and 630-nm filters. […] Proteinuria was measured semiquantitatively by using Combistix kit (Ames Division, Bayer Diagnostics, Newbury, U.K.). […]
# [2] = test system: PBL of SLE patients; assay: Proliferative response of PBL of SLE patients to the human 16/6Id mAb; assay type: cell-based; conditions: PBL of one SLE patient; for inhibition of the proliferative responses of PBL to human 16/6Id mAb: FIG. 7, reversed murine peptides as controls
# Protocol: (§2) Induction and treatment of experimental SLE. In order to induce experimental SLE, BALB/c mice were immunized with 1-2 μg of the human mAb 16/6Id and boosted 3 weeks later. For the prevention of experimental SLE, mice were given hCDR1 or hCDR3 (mCDR1 or revmCDR1 as control peptide in Example 12) intravenously (i.v.) or s.c. concomitant with the immunization, and were injected weekly thereafter for 5 weeks. Treatment of an established disease started three and a half months following disease induction with the 16/6Id, when clinical manifestations were already observed. In Example 12, mice received 10 weekly injections (i.v. or s.c.) of mCDR1 or revmCDR1 at a dose of 100 μg/mouse. Prevention and treatment of SLE-like disease in (NZB×NZW)F1 mice with the hCDR1 or mCDR1 peptide. For prevention of SLE, mice at the age of 2 months, before disease manifestations are observed, were injected s.c. with hCDR1 (or mCDR1 in Example 12, 250 μg/mouse) once a week for 10 weeks. To treat an established disease, mice at the age of 5-7 months were injected with hCDR1 (in Example 12, mCDR1 s.c., 250 μg/mouse) once a week for 10 weeks. Proliferative Responses. PBL were isolated from heparinized venous blood by Ficoll-Hypaque (Pharmacia) density-gradient centrifugation. All assays were performed, in triplicate, in flat-bottomed microtiter plates (Falcon, Becton Dickinson, Oxmard, Calif., USA) in which 2×10^5 PBL were cultured in enriched RPMI-1640 as described (Dayan et al., 2000). The PBL were exposed to various concentrations (0.1-40 μg/well) of the human anti-DNA 16/6Id mAb with and without the addition of the various CDR-based peptides at a concentration of at least 10-fold excess over that of the 16/6Id. Phytohemagglutinin (PHA; 2 μg/well) was used as a control for culture conditions at each experiment. The cultures were incubated in 7.5% CO2 at 37° C. for 6 days. Eighteen hours before the cells were harvested, [^3H]-thymidine (0.5μ Ci of 5 Ci/mmol) (Nuclear Research Center, Negev, Israel) was added to all cultures. Results are expressed as the mean thymidine incorporation in counts per minute (CPM) of triplicate culture±SD, or as stimulation index (S.I.; the ratio of mean CPM at the optimal concentration of the human 16/6Id to the mean CPM in the presence of medium alone). A S.I.≧2 was considered a positive response (Dayan et al., 2000). Inhibition (the ratio of mean CPM in the presence of the 16/6Id and various CDR-based peptides to the mean CPM with the 16/6Id without the CDR-based peptide) above 50% was considered positive. Induction of Cytokine Production. Mice that were immunized with the human 16/6Id mAb and either treated or not with the CDR-based peptide, were killed at different periods during or after treatment with the peptide. Splenocytes and lymph node cells (LNC) were harvested and incubated (5×10^6/ml) in the presence of the 16/6Id. Supernatants were collected after 48 and 72 h. Assessment of Cytokines in the Supernatants. Supernatants were collected 48 hours following the initiation of the cultures and stored at −70° C. Measurements of IL-2, IL-10, IFN-γ, and TNF-α were performed by ELISA by using the relevant standards, capture and detecting Abs (Pharmingen) according to the manufacturer's instructions. TGF-β was determined by an ELISA. Briefly, plates were coated with the recombinant human TGF-β1 sRIII/Fc chimera (R & D Systems Inc., Minneapolis, Minn., USA), and the second Ab used was the biotinylated anti-human TGF-β1 antibody (R & D Systems Inc.). The substrate solution used was TMB color Reagent (Helix Diagnostics, West Sacramento, Calif.), and enzyme activity was evaluated by using 570- and 630-nm filters. Detection of SLE-Associated Clinical and Pathological Manifestations. Proteinuria was measured semiquantitatively by using Combistix kit (Ames Division, Bayer Diagnostics, Newbury, U.K.). White blood cells (WBC, for leukopenia) were counted after a 10-fold dilution of heparinized blood in distilled water containing 1% acetic acid (vol/vol). […]
# [3] = test system: MMP-9; assay: MMP-9 activity in sera of 16/6Id immunized BALB/c mice; assay type: in vivo; conditions: for MMP-9 activity in sera: prevention and treatment protocols, 100 μg/mouse, FIG. 21B
# Protocol: as §1, with “peptide. For prevention of SLE, mice at the age of 2 months, before disease manifestations are observed, were injected s.c. with hCDR1 (or mCDR1 in Example 12, 250 μg/mouse) once a week for 10 weeks. To treat an established disease, mice at the age of 5-7 months were injected with hCDR1 (in Example 12, mCDR1 s.c., 250 μg/mouse) once a week for 10 weeks. Proliferative Responses. PBL were isolated from heparinized venous blood by Ficoll-Hypaque (Pharmacia) density-gradient centrifugation.” for “peptide.”, “U.K.). White blood cells (WBC, for leukopenia) were counted after a 10-fold dilution of heparinized blood in distilled water containing 1% acetic acid (vol/vol).” for “U.K.).”
# [4] = test system: MMP-9; assay: MMP-9 activity in sera of (NZB×NZW)F1 mice (gel zymography); assay type: in vivo; conditions: for activity of MMP-9 in the sera: treatment of sick mice, FIG. 20B right
# Protocol: as §2, with “A S.I.≧2 was considered a positive response (Dayan et al., 2000). Inhibition (the ratio of mean CPM in the presence of the 16/6Id and various CDR-based peptides to the mean CPM with the 16/6Id without the CDR-based peptide) above 50% was considered positive. Induction of Cytokine Production. Mice that were immunized with the human 16/6Id mAb and either treated or not with the CDR-based peptide, were killed at different periods during or after treatment with the peptide. Splenocytes and lymph node cells (LNC) were harvested and incubated (5×10^6/ml) in the presence of the 16/6Id. Supernatants were collected after 48 and 72 h. Assessment of Cytokines in the Supernatants. Supernatants were collected 48 hours following the initiation of the cultures and stored at −70° C. Measurements of IL-2, IL-10, IFN-γ, and TNF-α were performed by ELISA by using the relevant standards, capture and detecting Abs (Pharmingen) according to the manufacturer's instructions.” left out, “Briefly, plates were coated with the recombinant human TGF-β1 sRIII/Fc chimera (R & D Systems Inc., Minneapolis, Minn., USA), and the second Ab used was the biotinylated anti-human TGF-β1 antibody (R & D Systems Inc.).” left out, “Detection of SLE-Associated Clinical and Pathological Manifestations.” left out
# [5] = test system: MMP-9; assay: MMP-9 immunostaining of kidney sections of 16/6Id immunized BALB/c mice; assay type: in vivo; conditions: prevention and treatment experiments; glomeruli and interstitium; FIG. 22
# Protocol: as §1
# [6] = test system: SLE prone mice (NZB×NZW) F1 or MRL/lpr/lpr; conditions: Eilat et al., 2000 and 2001; cited from earlier work
# [7] = test system: MMP-3; assay: MMP-3 immunostaining of kidney sections of 16/6Id immunized BALB/c mice; assay type: in vivo; conditions: prevention and treatment experiments; glomeruli and interstitium; FIG. 22
# Protocol: as §1
# [8] = test system: MMP-3; assay: MMP-3 levels in sera of (NZB×NZW)F1 mice (Western blot); assay type: in vivo
# Protocol: as §1, with “peptide. For prevention of SLE, mice at the age of 2 months, before disease manifestations are observed, were injected s.c. with hCDR1 (or mCDR1 in Example 12, 250 μg/mouse) once a week for 10 weeks. To treat an established disease, mice at the age of 5-7 months were injected with hCDR1 (in Example 12, mCDR1 s.c., 250 μg/mouse) once a week for 10 weeks. Proliferative Responses. PBL were isolated from heparinized venous blood by Ficoll-Hypaque (Pharmacia) density-gradient centrifugation.” for “peptide.”, “U.K.). White blood cells (WBC, for leukopenia) were counted after a 10-fold dilution of heparinized blood in distilled water containing 1% acetic acid (vol/vol).” for “U.K.).”
# [9] = test system: T cell priming; conditions: administered in PBS; Waisman et al., 1997; cited from earlier work
# [10] = test system: (NZB×NZW)F1 mice; assay: Treatment of established SLE-like disease in (NZB×NZW)F1 mice; assay type: in vivo; conditions: 300 μg/mouse, age 7 months
# Protocol: as §2
# [11] = test system: BALB/c mice; assay: Treatment of 16/6Id-induced experimental SLE in BALB/c mice; assay type: in vivo; conditions: Table 12, 300 μg/mouse weekly
# Protocol: as §2
# [12] = test system: (NZB×NZW)F1 mice; assay: Transfer of splenocytes of peptide-treated mice into (NZB×NZW)F1 mice with full-blown disease; assay type: in vivo; conditions: Table 14 (repeat experiment), recipients of 20 × 10^6 spleen cells from treated mice
# Excerpt: It was of importance to investigate whether the beneficial effects of treatment with hCDR1, that are manifested by the down-regulation of disease manifestations, can be transferred by spleen cells of treated mice. To this end, we have performed an experiment in which 8-month old (NZB×NZW)F1 mice, that suffer already from the full-blown lupus-like disease, were divided into 2 groups. Group 1 was not treated and mice of group 2 were transferred with 20×10^6 spleen cells of 3-month old (NZB×NZW)F1 mice that were injected 3 times (s.c., every other day) with 300 μg/mouse of hCDR1. All splenocytes were injected intraperitoneally. Mice were tested for anti-dsDNA autoantibody production, disease manifestations, and were sacrificed 4 weeks after cell transfer.
# The experiment was repeated a few more times using revhCDR1 as control.
sequence,measurement,setting,value
"GIWELSKEPSQKVWQMYYGT (Synthetic peptide prepared in the reversed order of SEQ ID NO 1.) [revmCDR1, control peptide synthesized in the reversed order of mCDR1]",levels of MMP-3 in sera,[1],did not affect
same,inhibition of the proliferative responses of PBL to human 16/6Id mAb,[2],failed to inhibit significantly
same,MMP-9 activity in sera,[3],did not affect
same,activity of MMP-9 in the sera,[4],not
"SGQGWYDMAYPEWLFRACYY (Synthetic peptide prepared in reversed order of SEQ ID NO 3.) [revmCDR3, control peptide synthesized in the reversed order of mCDR3, reference compound]",inhibition of the proliferative responses of PBL to human 16/6Id mAb,[2],failed to inhibit significantly
TGYYMQWVKQSPEKSLEWIG [mCDR1],expression levels of MMP-9 in the kidneys,[5],down-regulated
same,prevention or treatment of SLE induced by human 16/6Id mAb or spontaneous,[6],either prevent or treat an already established SLE
same,levels of MMP-3 in sera,[1],could down regulate
same,expression levels of MMP-3 in the kidneys,[7],down-regulated
same,two lower bands of MMP-3 in the serum,"[8]; prevention protocol: 250 μg/mouse s.c. weekly for 10 weeks from age 2 months, FIG. 20A",reduction
same,levels of MMP-3 in the sera,"[8]; treatment of sick mice, FIG. 20A right",specifically down-regulated
same,T cell priming to the appropriate mCDR peptide or to the whole anti-DNA 16/6Id mAb,[9],inhibiting T cell priming
same,activity of sera comparable to pure active MMP-9,"[3]; MMP-9 activity assay system, preliminary, unimmunized 7 ng/ml, 16/6Id immunized 16 ng/ml",8.5 ng/mL
same,MMP-9 activity in sera,[3],could down regulate
same,MMP-9 activity in the serum,"[4]; prevention protocol: 250 μg/mouse s.c. weekly for 10 weeks from age 2 months, FIG. 20B",reduction
same,activity of MMP-9 in the sera,[4],specifically down-regulated
"GIWEEGKGPPQRIWSWYYG (Synthetic peptide prepared in the reversed order of SEQ ID NO 6.) [revhCDR1, control peptide synthesized in the reversed order of hCDR1, reference compound]",Proteinuria g/L ± SEM,"[10]; following treatment No 5, untreated 2.65 ± 1.76",6.94 ± 2.53 g/L
same,Proteinuria g/L ± SEM,"[10]; following treatment No 7, untreated 3.89 ± 2.73",6.76 ± 2.91 g/L
same,Proteinuria g/L ± SEM,"[10]; following treatment No 9, untreated 7.55 ± 3.95",5.99 ± 3.08 g/L
same,"Anti-dsDNA antibodies 1:1250, Mean ± SD",[11]; 16/6Id alone 0.47 ± 0.3,0.35 ± 0.3
same,"Proteinuria g/l, Mean ± SD",[11]; 16/6Id alone 0.58 ± 0.34,0.8 ± 0.3 g/L
same,"Anti-16/6 Id antibodies 1:10000, Mean ± SD",[11]; 16/6Id alone 0.89 ± 0.1,0.95 ± 0.13
same,"Intensity of ICD in kidneys, Mean ± SD",[11]; 16/6Id alone 1.6 ± 0.55,0.85 ± 0.75
same,"WBC/mm^3, Mean ± SD",[11]; 16/6Id alone 2800 ± 300,4180 ± 831 /mm^3
same,I.C.D ± SEM,[12]; non-treated 2.3 ± 0.26,1.7 ± 0.23
same,Proteinuria g/L ± SEM,[12]; non-treated 10.9 ± 3.05,5.38 ± 2.34 g/L
"YYCARFLWEPYAMDYWGQGS (Murine) [mCDR3, murine peptide based on CDR3 of the VH chain of murine mAb 5G12]",prevention or treatment of SLE induced by human 16/6Id mAb or spontaneous,[6],either prevent or treat an already established SLE
same,T cell priming to the appropriate mCDR peptide or to the whole anti-DNA 16/6Id mAb,[9],inhibiting T cell priming
same,inhibition of the proliferative responses of PBL to the human 16/6Id mAb,[2]; FIG. 6,did not inhibit
